“Also recorded” adds a separate entry of the source. Where two headings read alike, the source gives them in different places.
Experiments:
[1] = molecular target: Recombinant hCyp18 PPIase activity (Homo sapiens, UniProt P62937); assay: Cyp18 PPIase activity, protease coupled assay; format: biochemical
Experimental: The PPIase activity was measured at 7 °C with a protease coupled assay on a Hewlett-Packard 8452a diode array spectrophotometer (Fischer et al., 1984). To 1220 µl Hepes buffer pH 7.8, Cyp18 and inhibitor of desired concentration are added. After 10 min of incubation, protease and substrate were added. The final substrate concentration is 40 µM in 1280 µl. The cis/trans isomerization was monitor at 390 nm with 510 nm as a reference. The rate is calculated according to first order reaction. Recombinant hCyp18 PPIase activity was measured with the peptide Suc-Ala-Phe-Pro-Phe-NH-Np as substrate. The substrate was dissolved in DMSO (10 mg/ml). α-Chymotrypsin was used as auxiliary protease. The residual enzymatic activity was plotted versus the inhibitor concentration and used for calculating the inhibitor constants Ki as described before (Schutkowski et al., 1995).
PPIase activities are measured with a protease coupled assay, using Suc-Ala-Phe-Pro-Phe-NH-Np as substrate and chymotrypsin as auxiliary protease, in 35 mM HEPES buffer pH 7.8, at 7 °C. Cyp18 concentration is 2.5 nM. […] Irradiations have been performed with light of 740 nm for 45 min. […]

[2] = molecular target: calcineurin (CaN) phosphatase activity (Homo sapiens, UniProt P62937+P63098+Q08209); assay: Calcineurin (CaN) phosphatase activity inhibition assay in the presence of Cyp18; details: for change of CaN inhibition between cis and trans forms / upon light irradiation: in the presence of Cyp18, absence of SA
Experimental: The reaction mixture containing 700 µM peptide, 0.2 µM cAMP, 100 µCi[γ-^33P]ATP and 10 kU PKA in a final volume of 100 µl in the buffer (containing 20 mM MES, pH 6.5, 0.4 mM EDTA, 0.2 mM EGTA, 50 µM CaCl2 and 2 mM MgCl2) was incubated for one hour at 30 °C. The phosphorylated peptides were separated from unincorporated labeled ATP by 1 ml RP-C2 clean up extraction column (Amchro, Sulzbach, Germany). The eluted peptide (with 70% acetonitrile) was lyophilized and reconstituted with de-ionized water.
The scintillation proximity concept has been applied for measuring calcineurin activity using ScintiPlate wells coated with streptavidin. […] Biotinylated [γ-^33P] RII peptide was added to a final concentration of 100 nM and the total assay volume is 100 µl. After incubation at 30 °C for 30 min, 90 µl of the reaction mixture was transferred to the ScintiPlate well coated with streptavidin. The streptavidin immobilizes the biotinylated RII peptide on the wells. After 20 min at 22 °C the well was washed once with water and the RII associated [γ-^33P] was measured in the top-counter MicroBeta (Wallac, Turku, Finland).

[3] = molecular target: Cyp18/CsA-AB-CsA/Cyp18 tertiary complex (Homo sapiens, UniProt P62937); assay: Coprecipitation of His4-Cyp18 with GST-Cyp18 matrix on glutathione-Sepharose; format: binding
Cyp18/CsA-AB-CsA/Cyp18 tertiary complex, sequence (P62937 whole entry, one chain of several): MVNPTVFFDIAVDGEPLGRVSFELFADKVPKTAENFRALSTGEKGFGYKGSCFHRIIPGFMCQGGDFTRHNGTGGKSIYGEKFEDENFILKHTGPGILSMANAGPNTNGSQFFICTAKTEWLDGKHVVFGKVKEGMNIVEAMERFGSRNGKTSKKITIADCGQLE
Text: The proteins were eluted by boiling with sample buffer and separated by SDS-PAGE, transferred onto nitrocellulose membrane and probed with anti-His and anti-GST antibodies.

CaN and Cyp18 = assay: Cross-linking (BS3) of CaN and Cyp18 in treated Jurkat cells, anti-CaN blot; format: cell-based, human
Experimental: Cells were lysed and the clear supernatants were incubated with calmodulin sepharose. Cross-linking reagent BS^3 was added to the EDTA eluates. After TCA precipitation, the samples were separated by SDS-PAGE and probed with anti-CaN antibody and detected by enhanced chemiluminescent reaction.

Recombinant hCyp18 PPIase activity, sequence (P62937 whole entry): as the sequence (P62937 whole entry, one chain of several) above

For `C/C=C/C[C@@H](C)[C@@H](O)[C@H]1C(=O)N[C@@H](CC)C(=O)N(C)CC(=O)N(C)[C@@H](CC(C)C)C(=O)N[C@@H](C(C)C)C(=O)N(C)[C@@H](CC(C)C)C(=O)N[C@@H](C)C(=O)N[C@H](COCC(=O)Nc2ccc(N=Nc3ccc(NC(=O)COC[C@H]4NC(=O)[C@H](C)NC(=O)[C@H](CC(C)C)N(C)C(=O)[C@H](C(C)C)NC(=O)[C@H](CC(C)C)N(C)C(=O)CN(C)C(=O)[C@H](CC)NC(=O)[C@H]([C@H](O)[C@H](C)C/C=C/C)N(C)C(=O)[C@H](C(C)C)N(C)C(=O)[C@H](CC(C)C)N(C)C(=O)[C@H](CC(C)C)N(C)C4=O)cc3)cc2)C(=O)N(C)[C@@H](CC(C)C)C(=O)N(C)[C@@H](CC(C)C)C(=O)N(C)[C@@H](C(C)C)C(=O)N1C` [CsA-AB-CsA], the “increase of inhibitory potency towards the PPIase activity of Cyp18, cis compared to trans” value ([1]; irradiated cis vs non-irradiated trans) was 7 fold, the “Cyp18 inhibitory profile after thermal cis to trans isomerization” value ([1]; irradiated sample kept in darkness overnight at room temperature) was “reversed” and the IC50 ([1]; irradiated, cis, absence of SA, Cyp18 2.5 nM, 7 °C, read-out: IC50, inhibition of Cyp18 PPIase activity) was 30 ± 3 nM. For the same molecule, the IC50 ([1]; non-irradiated, trans, absence of SA, Cyp18 2.5 nM, 7 °C, read-out: IC50, inhibition of Cyp18 PPIase activity) was 206 ± 22 nM, the “change of CaN inhibition between cis and trans forms / upon light irradiation” value [2] was “significant increase” and the “coprecipitation of His4-Cyp18 with GST-Cyp18” value ([3]; photoswitched cis (irradiated)) was “coprecipitated together with GST-Cyp18”. For the same molecule, the “coprecipitation of His4-Cyp18 with GST-Cyp18” value ([3]; trans (non-irradiated)) was “only a minor amount”.

For `C/C=C/C[C@@H](C)[C@@H](O)[C@H]1C(=O)N[C@@H](CC)C(=O)N(C)CC(=O)N(C)[C@@H](CC(C)C)C(=O)N[C@@H](C(C)C)C(=O)N(C)[C@@H](CC(C)C)C(=O)N[C@@H](C)C(=O)N[C@H](COCC(=O)Nc2ccc(N=Nc3ccc(NC(=O)CCCC[C@@H]4SC[C@@H]5NC(=O)N[C@@H]54)cc3)cc2)C(=O)N(C)[C@@H](CC(C)C)C(=O)N(C)[C@@H](CC(C)C)C(=O)N(C)[C@@H](C(C)C)C(=O)N1C` [CsA-AB-Biotin], the IC50 ([1]; IC50, inhibition of Cyp18 PPIase activity, cis isomer bound to the borrowed protein SA (4 equivalents)) was 4.45 ± 0.55 nM, the IC50 ([1]; IC50, inhibition of Cyp18 PPIase activity, irradiated, cis, absence of SA, Cyp18 2.5 nM, 7 °C) was 2.21 ± 0.02 nM and the IC50 ([1]; IC50, inhibition of Cyp18 PPIase activity, non-irradiated, trans, absence of SA, Cyp18 2.5 nM, 7 °C) was 2.96 ± 0.68 nM. For the same molecule, the IC50 ([1]; IC50, inhibition of Cyp18 PPIase activity, trans isomer bound to the borrowed protein SA (4 equivalents)) was 9.37 ± 0.75 nM, the “trans/cis difference of activity in CaN inhibition assay” value ([2]; absence of SA) was 1.4 and the “change of CaN inhibition between cis and trans forms / upon light irradiation” value [2] was “only a minor change”. For the same molecule, the “IC50, CaN inhibition” value ([2]; non-irradiated (trans), in the presence of SA) was “too high to be determined precisely”, the inhibition at 10 µM ([2]; read-out: CaN inhibition) was 30% and the “cross-linking between CaN and Cyp18” value (CaN and Cyp18; absence of SA, conjugate in photoswitched cis form) was “intensive cross-linking”. The “cross-linked CaN-Cyp18-SA” value (CaN and Cyp18; cells transfected with SA, cis) was “detected only in sample treated with cis-CsA-AB-Biotin; also recorded: can only be detected in samples treated with cis-CsA-AB-Biotin”, the “cross-linking between CaN and Cyp18” value (CaN and Cyp18; cells transfected with SA, non-irradiated trans) was “weakest cross-linking effect” and the “interaction of the Cyp18-trans-CsA-AB-Biotin-SA complex with CaN” value (CaN and Cyp18; cells transfected with SA, trans) was “does not interact with CaN”.

Reference: patent EP2116263A1, “Reversibly light-switchable drug-conjugates” (priority 2008, dated 2009)
